Like-named read-outs stand apart in the source and are kept apart here. Where a SMILES comes first, the peptide text is derived from it. Side-chain parts run from the residue outwards. The star is where a group is joined. Nicotinoyl = O=C(c1cccnc1)*; Cbz = O=C(OCc1ccccc1)*
Target: T1, human AT2 receptor (Homo sapiens, UniProt P50052)
T1 construct: membranes prepared in house
T1 sequence (P50052 1-363): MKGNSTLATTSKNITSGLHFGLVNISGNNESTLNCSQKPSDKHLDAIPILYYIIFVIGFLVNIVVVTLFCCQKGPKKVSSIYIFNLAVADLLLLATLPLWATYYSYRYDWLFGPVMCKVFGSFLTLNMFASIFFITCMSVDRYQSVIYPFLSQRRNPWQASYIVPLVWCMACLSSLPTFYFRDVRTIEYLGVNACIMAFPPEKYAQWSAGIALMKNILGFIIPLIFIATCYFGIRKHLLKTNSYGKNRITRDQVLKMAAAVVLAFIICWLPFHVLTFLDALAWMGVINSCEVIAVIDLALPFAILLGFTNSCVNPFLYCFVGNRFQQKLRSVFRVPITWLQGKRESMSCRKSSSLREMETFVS
Test: AT2 receptor binding ([125I]CGP 42112A displacement, CHO-K1 membranes)
Description: Reagents were purchased from Sigma-Aldrich, unless otherwise specified. Dialyzed fetal bovine serum (FBS) was from Life Technologies (cat. no. 10073772). Valiscreen® human angiotensin AT2 receptor cell line (cat. no. ES-070-C), [^125I]CGP 42112A (cat. no. NEX324025UC) and MicroScint™ 40 (cat. no. 6013641) were purchased from PerkinElmer. CGP 42112A (cat. no. 2569) and PD 123,319 ditrifluoroacetate (cat. no. 1361) were from Tocris Biosciences.
• 1. Growth medium • EX-CELL® CHO DHFR^− medium • 10% FBS, dialysed • 1 mM sodium pyruvate • 2 mM L-glutamine • 2. Harvesting buffer • PBS • 2 mM EDTA • 3. Suspension buffer • 50 mM Tris-HCl, pH 7.4 • 10 mM EDTA • 4. Resuspension buffer • 50 mM Tris-HCl, pH 7.4 • 0.1 mM EDTA • 0.1% sucrose • 5. Binding assay buffer • 50 mM Tris-HCl, pH 7.4 • 5 mM MgCl2 • 1 mM EDTA • 0.1% gelatin • 6. Wash buffer • 50 mM Tris-HCl, pH 7.4 Procedure for Membrane Preparation • Valiscreen® CHO-K1 cells stably expressing the human AT2 receptor were cultured in growth medium. • Cells were seeded into T-175 flasks and grown to 70-80% confluence. • Medium was removed from confluent flasks and cells were washed with warm PBS. • Cells were harvested by incubating with harvesting buffer for 10 min at 37° C., and then transferred to a centrifuge tube on ice. • Cells were centrifuged at 200 g for 5 min at 4° C. • Cell pellets were homogenised in ice-cold suspension buffer. • Homogenates were centrifuged at 40,000 g for 15 min at 4° C. • Pellets were resuspended in ice-cold resuspension buffer and centrifuged at 40,000 g for 15 min at 4° C. • Final pellets were homogenised in ice-cold resuspension buffer. • Protein concentrations were determined by BCA assay method with BSA as standard. Compound Preparation
Compounds were prepared from 10 mM stock solutions in 100% DMSO. Dilutions were made using electronic multichannel pipettes.
• Compounds dilutions were prepared in 100% DMSO at 100× final assay concentration. • Compounds were diluted in 100% DMSO to the appropriate maximal concentration. • 30 μL compound was added to row A. • 21.6 μL of 100% DMSO was added to rows B-H. • Transfer 10 μL from row A into row B (half log dilution). • Transfer 10 μL from row B into row C (half log dilution). • Transfer 10 μL from row C into row D (half log dilution). • Transfer 10 μL from row D into row E (half log dilution). • Transfer 10 μL from row E into row F (half log dilution). • Transfer 10 μL from row F into row G (half log dilution). • Transfer 10 μL from row G into row H (half log dilution). Working Plate Preparation (96-Well Plate) • Compounds were diluted 10-fold in assay buffer. • 10 μL compound solution from dose plate was transferred to corresponding well of working plate. • 90 μL assay buffer was added to the wells of working plate. • Working solutions contained 10% DMSO in assay buffer (1% DMSO final assay concentration). Controls • Total binding (high control) was determined in the absence of unlabelled ligand. A solution of 10% DMSO in assay buffer was prepared. • Non-specific binding (low control) was determined in the presence of a vast excess (10 μM) of PD 123,319. 1 mM stock solution of PD 123,319 in water was diluted 10-fold with 10% DMSO in assay buffer. Assay Plate Preparation (96-Well Plate)
15 μL compound solution was transferred to duplicate wells of assay plate. 5 compounds were tested per plate. 15 μL control solutions were transferred to columns 1 and 12 of assay plate.

[1] = [125I]CGP 42112A 0.05 nM, membranes of CHO-K1 cells expressing human AT2 receptor, Ki from IC50 by Cheng-Prussoff equation, read-out: Ki

SMILES | Ki [1] | Ki (standard compounds, mean±S.E.M., read-out: Dissociation constants (pKi) (converted))
Cc1ccc2c(c1)N([C@H]1C[C@@H](C(=O)O)N(C(=O)C(c3ccccc3)c3ccccc3)C1)CCCC2 [Compound 3, (2S,4S)-1-(2,2-Diphenylacetyl)-4-(8-methyl-2,3,4,5-tetrahydro-1H-benzo[b]azepin-1-yl)pyrrolidine-2-carboxylic acid] | 34 nM | 
O=C(O)[C@@H]1C[C@H](N2CCCCc3ccc(F)cc32)CN1C(=O)C(c1ccccc1)c1ccccc1 [Compound 2, (2S,4S)-1-(2,2-Diphenylacetyl)-4-(8-fluoro-2,3,4,5-tetrahydro-1H-benzo[b]azepin-1-yl)pyrrolidine-2-carboxylic acid] | 4.7 nM | 
O=C(NS(=O)(=O)C1CC1)[C@@H]1C[C@H](N2CCCOc3cc(F)ccc32)CN1C(=O)C(c1ccccc1)c1ccccc1 [Compound 38, (2S,4S)—N-(Cyclopropylsulfonyl)-1-(2,2-diphenylacetyl)-4-(8-fluoro-3,4-dihydrobenzo[b][1,4]oxazepin-5(2H)-yl)pyrrolidine-2-carboxamide] | 6 nM | 
O=C(NS(=O)(=O)C1CC1)[C@@H]1C[C@H](N2CCCOc3ccc(F)cc32)CN1C(=O)C(c1ccccc1)c1ccccc1 [Compound 37, (2S,4S)—N-(Cyclopropylsulfonyl)-1-(2,2-diphenylacetyl)-4-(7-fluoro-3,4-dihydrobenzo[b][1,4]oxazepin-5(2H)-yl)pyrrolidine-2-carboxamide] | 4.1 nM | 
O=C(O)[C@@H]1C[C@@H](N2CCCOc3cc(F)c(F)cc32)CN1C(=O)C(c1ccccc1)c1ccccc1 [Compound 24, (2S,4R)-4-(7,8-Difluoro-3,4-dihydrobenzo[b][1,4]oxazepin-5(2H)-yl)-1-(2,2-diphenylacetyl)pyrrolidine-2-carboxylic acid] | 1.4 nM | 
O=C(NS(=O)(=O)C1CC1)[C@@H]1C[C@H](N2CCCCc3ccccc32)CN1C(=O)C(c1ccccc1)c1ccccc1 [Compound 43, (2S,4S)—N-(Cyclopropylsulfonyl)-1-(2,2-diphenylacetyl)-4-(2,3,4,5-tetrahydro-1H-benzo[b]azepin-1-yl)pyrrolidine-2-carboxamide] | 8.6 nM | 
O=C(O)[C@@H]1C[C@H](N2CCCCCc3ccccc32)CN1C(=O)C(c1ccccc1)c1ccccc1 [Compound 13, (2S,4S)-1-(2,2-Diphenylacetyl)-4-(3,4,5,6-tetrahydrobenzo[b]azocin-1(2H)-yl)pyrrolidine-2-carboxylic acid] | 8.7 nM | 
O=C(NS(=O)(=O)C1CC1)[C@@H]1C[C@H](N2CCCCc3cc(F)c(F)cc32)CN1C(=O)C(c1ccccc1)c1ccccc1 [Compound 41, (2S,4S)—N-(Cyclopropylsulfonyl)-4-(7,8-difluoro-2,3,4,5-tetrahydro-1H-benzo[b]azepin-1-yl)-1-(2,2-diphenylacetyl)pyrrolidine-2-carboxamide] | 15.1 nM | 
O=C(O)[C@@H]1C[C@@H](N2CCCOc3ccccc32)CN1C(=O)C(c1ccccc1)c1ccccc1 [Compound 26, (2S,4R)-4-(3,4-Dihydrobenzo[b][1,4]oxazepin-5(2H)-yl)-1-(2,2-diphenylacetyl)pyrrolidine-2-carboxylic acid] | 4.1 nM | 
C[C@@]1(C(=O)O)C[C@H](N2CCCOc3cc(F)ccc32)CN1C(=O)C(c1ccccc1)c1ccccc1 [Compound 33, (2S,4S)-1-(2,2-Diphenylacetyl)-4-(8-fluoro-3,4-dihydrobenzo[b][1,4]oxazepin-5(2H)-yl)-2-methylpyrrolidine-2-carboxylic acid] | 7 nM | 
O=C(C(c1ccccc1)c1ccccc1)N1C[C@@H](N2CCCCc3ccccc32)C[C@H]1c1nn[nH]n1 [Compound 35, 2,2-Diphenyl-1-((2S,4S)-4-(2,3,4,5-tetrahydro-1H-benzo[b]azepin-1-yl)-2-(2H-tetrazol-5-yl)pyrrolidin-1-yl)ethan-1-one] | 36.2 nM | 
CC[C@H](C)[C@H](NC(=O)[C@@H]1CCCN1C(=O)[C@H](Cc1c[nH]cn1)NC(=O)[C@H](CCCCNC(=O)[C@H](CCCN=C(N)N)NC(=O)OCc1ccccc1)NC(=O)[C@H](Cc1ccc(O)cc1)NC(=O)c1cccnc1)C(=O)O [CGP 42112A, reference compound] (Nicotinoyl-YK([Arg-Cbz])HPI-OH) |  | 0.178 nM

Second part, the molecule after the results:

Ki [1] | Ki (standard compounds, mean±S.E.M., read-out: Dissociation constants (pKi) (converted)) | SMILES
148 nM |  | O=C(O)[C@@H]1C[C@H](N2CCOCc3ccccc32)CN1C(=O)C(c1ccccc1)c1ccccc1 [Compound 10, (2S,4S)-4-(2,3-Dihydrobenzo[e][1,4]oxazepin-1(5H)-yl)-1-(2,2-diphenylacetyl)pyrrolidine-2-carboxylic acid]
23.8 nM |  | O=C(O)[C@@H]1C[C@H](N2CCCc3ccccc32)CN1C(=O)C(c1ccccc1)c1ccccc1 [Compound 14, (2S,4S)-4-(3,4-Dihydroquinolin-1(2H)-yl)-1-(2,2-diphenylacetyl)pyrrolidine-2-carboxylic acid]
10.2 nM |  | CN(C)S(=O)(=O)NC(=O)[C@@H]1C[C@H](N2CCCOc3cc(F)c(F)cc32)CN1C(=O)C(c1ccccc1)c1ccccc1 [Compound 39, (2S,4S)-4-(7,8-Difluoro-3,4-dihydrobenzo[b][1,4]oxazepin-5(2H)-yl)-N—(N,N-dimethylsulfamoyl)-1-(2,2-diphenylacetyl)pyrrolidine-2-carboxamide]
22.8 nM |  | O=C(O)[C@@H]1C[C@H](N2CCCCc3cc(Cl)ccc32)CN1C(=O)C(c1ccccc1)c1ccccc1 [Compound 6, (2S,4S)-4-(7-Chloro-2,3,4,5-tetrahydro-1H-benzo[b]azepin-1-yl)-1-(2,2-diphenylacetyl)pyrrolidine-2-carboxylic acid]
66.8 nM |  | NC(=O)[C@@H]1C[C@H](N2CCCCc3ccccc32)CN1C(=O)C(c1ccccc1)c1ccccc1 [Compound 15, (2S,4S)-1-(2,2-Diphenylacetyl)-4-(2,3,4,5-tetrahydro-1H-benzo[b]azepin-1-yl)pyrrolidine-2-carboxamide]
28.2 nM |  | O=C(O)[C@@H]1C[C@H](N2CCc3ccccc3CC2)CN1C(=O)C(c1ccccc1)c1ccccc1 [Compound 45, (2S,4S)-1-(2,2-Diphenylacetyl)-4-(1,2,4,5-tetrahydro-3H-benzo[d]azepin-3-yl)pyrrolidine-2-carboxylic acid]
9.8 nM |  | O=C(O)[C@@H]1C[C@@H](N2CCCCc3ccccc32)CN1C(=O)C(c1ccccc1)c1ccccc1 [Compound 22, (2S,4R)-1-(2,2-diphenylacetyl)-4-(2,3,4,5-tetrahydro-1H-benzo[b]azepin-1-yl)pyrrolidine-2-carboxylic acid]
1.4 nM |  | O=C(O)[C@@H]1C[C@H](N2CCCOc3ccc(F)cc32)CN1C(=O)C(c1ccccc1)c1ccccc1 [Compound 8, (2S,4S)-1-(2,2-Diphenylacetyl)-4-(7-fluoro-3,4-dihydrobenzo[b][1,4]oxazepin-5(2H)-yl)pyrrolidine-2-carboxylic acid]
9.3 nM |  | CN(C)S(=O)(=O)NC(=O)[C@@H]1C[C@H](N2CCCCc3cc(F)c(F)cc32)CN1C(=O)C(c1ccccc1)c1ccccc1 [Compound 40, (2S,4S)-4-(7,8-Difluoro-2,3,4,5-tetrahydro-1H-benzo[b]azepin-1-yl)-N—(N,N-dimethylsulfamoyl)-1-(2,2-diphenylacetyl)pyrrolidine-2-carboxamide]

— patent US10065943B2, “Pyrrolidine derivatives as angiotensin II type 2 antagonists” (NOVARTIS AG, priority 2015, dated 2018)
